Data reported in PubChem BioAssay (NCI).
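Each compound was tested at five concentrations against cells in 96-well plates for 48 hours. GI50 = concentration required for 50% inhibition of growth. Definition used: TGI = concentration required for complete inhibition of growth.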

Assays:
Test in all cases: NCI anticancer screen, dose series, 48 h
A498 renal = test system: A498 renal
BT-549 breast = test system: BT-549 breast
HS 578T breast = test system: HS 578T breast
KM12 colon = test system: KM12 colon
MDA-MB-231 breast = test system: MDA-MB-231 breast
NCI-H226 lung = test system: NCI-H226 lung
OVCAR-5 ovarian = test system: OVCAR-5 ovarian
PC-3 prostate = test system: PC-3 prostate
SF-268 CNS = test system: SF-268 CNS
TK-10 renal = test system: TK-10 renal

| Compound | GI50 (A498 renal) [µM] | TGI (A498 renal) [µM] | GI50 (BT-549 breast) [µM] | TGI (BT-549 breast) [µM] | GI50 (HS 578T breast) [µM] | TGI (HS 578T breast) [µM] | GI50 (KM12 colon) [µM] | TGI (KM12 colon) [µM] | GI50 (MDA-MB-231 breast) [µM] | TGI (MDA-MB-231 breast) [µM] | GI50 (NCI-H226 lung) [µM] | TGI (NCI-H226 lung) [µM] | GI50 (OVCAR-5 ovarian) [µM] | TGI (OVCAR-5 ovarian) [µM] | GI50 (PC-3 prostate) [µM] | TGI (PC-3 prostate) [µM] | GI50 (SF-268 CNS) [µM] | TGI (SF-268 CNS) [µM] | GI50 (TK-10 renal) [µM] | TGI (TK-10 renal) [µM] |
| --- | --- | --- | --- | --- | --- | --- | --- | --- | --- | --- | --- | --- | --- | --- | --- | --- | --- | --- | --- | --- |
| Nc1ncnc2c1c(-c1ccc(Oc3ccccc3)cc1)nn2C[C@@H]1SSC[C@H]1O | 2.18 | 5.53 | 3.58 | 11.6 | 2.96 | 11.2 | 0.208 | 16.7 | 1.8 | 5.45 | 1.69 | 4.7 | 3.47 | 26.6 | 3.23 | 15.5 | 0.199 | 15.1 | 1.49 | 3.16 |
| CCOC(=O)C1CCCCN1C(=O)c1ccc(Nc2cnc3cc(C(F)(F)F)ccc3n2)cc1 (centres undefined) | 10.3 | 22.9 | 20.1 | 38.7 | 3.18 | 14.7 | 13.1 | 27.8 | 2.86 | 5.66 | 24.5 | 45.6 | 10.3 | 23 | 11.5 | 26.9 | 13.2 | 32.7 | 13.3 | 28 |
| COc1ccc(C2=CC(c3ccc(OC)cc3Br)N3C=CSC3=N2)cc1 (centres undefined) | 13.3 | 32.5 | 3.19 | 12.1 | 14.4 | 66.5 | 2.28 | 5.06 | 8.32 | 36.2 | 14.7 | 37.8 | 12.4 | 32.3 | 6.4 | 31.9 | 13.7 | 48.5 | 13.9 | 33.3 |
| Cc1nn(-c2ccc([N+](=O)[O-])cc2)c2ncnc(N/N=C/c3ccccc3O)c12 | 2.92 | > 66.9 | 0.431 | > 42.4 | 1.43 | 8.27 | 0.379 | > 100 | 0.482 | 3.97 | 2.56 | > 26.2 | 2.04 | > 100 | 0.587 | > 100 | 0.313 | > 100 | 0.942 | 7.78 |
| O=[N+]([O-])c1ccc(N2CCC(CCCC3CCN(c4ccc([N+](=O)[O-])cc4[N+](=O)[O-])CC3)CC2)c([N+](=O)[O-])c1 | – | 31.8 | – | 71.8 | – | > 100 | – | 30.7 | – | 36 | – | 56.6 | – | 45.7 | – | 33.7 | – | 42.6 | – | 32.7 |
| CCOC(=O)c1cc2c(n1Cc1cc(OC)c(OC)c(OC)c1)-c1oncc1CCC2 | 0.0602 | 0.435 | 0.647 | 22 | 0.343 | > 100 | 0.0884 | > 55.4 | 0.372 | 2.46 | 1.27 | > 53 | 0.481 | > 100 | 0.209 | > 65.3 | 0.657 | > 60.2 | 64.9 | > 100 |
| Nc1c(C(=O)c2cccc(-c3cccnc3)c2)cnn1-c1ccc(F)cc1F | 2.64 | > 23 | 5.91 | > 25 | 7.44 | > 25 | 1.21 | > 25 | 3.8 | > 25 | 6.96 | > 25 | > 19.6 | > 25 | 5.12 | > 25 | 10.8 | > 25 | 6.43 | > 25 |
| COC(=O)Nc1nc2ccc(Oc3cccc(NC(=O)Nc4cc(C(F)(F)F)ccc4F)c3)cc2[nH]1 | 9.46 | > 25 | 23 | > 25 | 7.47 | > 25 | 7.57 | > 25 | 11.4 | > 25 | > 15.3 | > 25 | > 22.5 | > 25 | 14.3 | > 25 | 18.5 | > 25 | > 25 | > 25 |
| COc1ccc(C2=C(c3ccc(OC)c(OC)c3)C(=O)N3CCCC3C2)cc1 (centres undefined) | 34.1 | > 100 | > 71.2 | > 100 | 6.71 | > 78 | 15.7 | > 100 | 22 | > 100 | 43.9 | > 100 | > 100 | > 100 | 9.73 | > 100 | 9.44 | > 100 | 76.2 | > 100 |
| COc1cc(/C=C/C(=O)c2ccc(F)cc2)ccc1OCCCN1CCN(CC(=O)Nc2ccc(Cl)cc2C(=O)c2ccccc2Cl)CC1 | 29.4 | > 100 | 10.8 | 26.2 | 7.01 | 46.3 | 5.58 | 22.2 | 11.6 | 27.1 | 18.4 | 37.2 | 13.4 | > 100 | 5.06 | 45.7 | 16.9 | > 100 | 10.4 | 26.1 |
| Cn1cccc1-c1cc(-c2ccc(Br)cc2)[nH]c(=O)c1C#N | 54.4 | > 100 | 85.2 | > 100 | > 100 | > 100 | > 100 | > 100 | 82.5 | > 100 | > 100 | > 100 | > 100 | > 100 | > 100 | > 100 | > 100 | > 100 | > 100 | > 100 |
| CN(C)CC1CCC2=C(C1=O)C(c1ccc(Cl)c(Cl)c1)C1=C(CCC(CN(C)C)C1=O)O2 (centres undefined) | 14.3 | 27.4 | 14.2 | 27.7 | 15.6 | 36.2 | 2.58 | 8.85 | 15.4 | 28.7 | 15.3 | 31.2 | 20 | 36.6 | – | 19.9 | 15.6 | 29.5 | 0.7 | 1.98 |
| COC(=N)c1c(N)[n+]([O-])c2ccc(F)cc2[n+]1[O-] | 40.4 | > 100 | > 100 | > 100 | > 100 | > 100 | > 100 | > 100 | > 100 | > 100 | > 100 | > 100 | > 100 | > 100 | > 100 | > 100 | > 100 | > 100 | > 100 | > 100 |
| N#CSCc1ccc(Cl)c(CSC#N)c1 | 0.273 | 4.04 | 0.303 | 11.2 | 3.16 | 97.9 | 0.545 | > 41.9 | 2.36 | > 64 | 3.11 | 10.3 | 1.77 | 24.5 | 1.35 | 27.1 | 0.298 | 37.4 | 14.5 | 46.6 |
| COc1ccc(/C=C(\C(=O)NCc2cccnc2)S(=O)(=O)c2ccccc2)cc1OC | 2.78 | 8 | 2.45 | 6.69 | 3.41 | 26.3 | 2.81 | 8.61 | 2.93 | 10.6 | 3.13 | 10.7 | 3.31 | 10.3 | 3.5 | 14.5 | 3.32 | 15.9 | 5.57 | 18.1 |
| O=S(=O)(c1cccc2c(I)cccc12)N1CCCNCC1 | 14.2 | 30.2 | 16.7 | 43.3 | 15.4 | 39.5 | 16.3 | 33.9 | 19.5 | 36.7 | 17.8 | 34.8 | 16 | 33.5 | 14.9 | 32.8 | 26.6 | > 100 | 12.8 | 28 |
| Cc1[nH]c(=O)nc(Nc2ccc(Cl)cc2)c1C(=O)N1CCN(CCO)CC1 | 42.2 | > 100 | 53.8 | > 100 | 34.2 | > 100 | > 100 | > 100 | 46.3 | > 100 | > 100 | > 100 | > 100 | > 100 | > 100 | > 100 | 65 | > 100 | 77.7 | > 100 |
| O1[As]2O[As]3O[As]1O[As](O2)O3 | 0.0875 | 0.352 | 0.278 | 0.903 | 0.981 | > 42.5 | 3.31 | 13.9 | 0.648 | 2.96 | 1.01 | 4.64 | 1.41 | 5.32 | 0.781 | 5.9 | 0.456 | 1.86 | 2.31 | 9.5 |
| CN1CCc2[nH]nc(-c3n[nH]c4c3CN(C)CC4)c2C1 | – | > 100 | – | > 100 | – | > 100 | – | > 100 | – | > 100 | – | > 100 | – | > 100 | – | > 100 | – | > 100 | – | > 100 |
| CCN1C(=O)N(CC)C2C1NN=c1s/c(=C\c3ccccn3)c(=O)n12 (centres undefined) | 0.184 | 2.74 | 3.99 | > 100 | 2.76 | > 100 | 1.29 | > 100 | 4.05 | > 100 | 3.07 | > 100 | 4.61 | > 100 | 1.79 | > 100 | 88.5 | > 100 | 40.7 | > 100 |
